IC50, Kd and MIC data for 13 molecules are collected here from article doi:10.1101/850305v1 (biorxiv, 2019).

In brackets after ≈: the same amount, converted by molar mass. Read-outs that look alike come from different tables or passages of the source.

The target in experiment [1] is T1, E. coli LpxA (Escherichia coli, UniProt P0A722).
T1 sequence (P0A722 1-262): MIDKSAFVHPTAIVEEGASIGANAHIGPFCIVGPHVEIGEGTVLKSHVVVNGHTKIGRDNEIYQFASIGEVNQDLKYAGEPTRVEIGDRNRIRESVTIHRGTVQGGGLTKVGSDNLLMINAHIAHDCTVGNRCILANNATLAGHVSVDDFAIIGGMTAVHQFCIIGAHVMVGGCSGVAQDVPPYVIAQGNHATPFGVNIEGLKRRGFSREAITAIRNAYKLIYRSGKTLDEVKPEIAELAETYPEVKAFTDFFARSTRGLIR
The experiment in a line: SPE-MS detection of LpxA product. It is filed as biochemical.

Experiment [2] addresses T1, E. coli LpxA. The experiment in a line: SPR. It is filed as binding.
The next experiment relates to MG1655 E. coli K-12. The experiment in a line: microbe, parasite or virus in culture. To be noted: Escherichia coli.
The next experiment concerns VECO2526 E. coli ΔtolC. The experiment in a line: microbe, parasite or virus in culture. To be noted: Escherichia coli.
Another experiment relates to CDY0154 E. coli Δ9efflux. Kind of experiment: microbe, parasite or virus in culture. To be noted: Escherichia coli.
The test system of experiment [3] is ATCC 25922 E. coli clinical isolates. Kind of experiment: microbe, parasite or virus in culture. To be noted: Escherichia coli.
For experiment [4], the system named is Escherichia coli TUP0115 ΔtolC pLacZα. Kind of experiment: microbe, parasite or virus in culture. To be noted: read-out: MIC.
The target in experiment [5] is T1, E. coli LpxA. The experiment in a line: SPE-MS detection of LpxA product. It is filed as biochemical. This is another data set of the same source.
For experiment [6], the target named is T1, E. coli LpxA. Kind of experiment: SPE-MS detection of LpxA product. It is filed as biochemical. This is another data set of the same source.
Experiment [7] has as its target T1, E. coli LpxA. Kind of experiment: SPR. It is filed as binding. This is another data set of the same source.

By IC50 is commonly meant the concentration that inhibits the measured activity by half. Low readings indicate inhibition by little substance, high ones a need for much substance. On E. coli LpxA [1], `Cc1ccnc(-c2cc(C(=O)N3CCOC[C@H]3Cc3ccccc3Cl)[nH]n2)c1` [compound 7] returned an IC50 of 2.9 µM. On the same count and under the same terms, as for `COc1cccc(Cl)c1C[C@@H]1COCCN1C(=O)c1cc(-c2cc(C)ccn2)n[nH]1` [compound 11], the figure is 0.5 µM. Same read-out and setting: as for `Cc1ccnc(-c2cc(C(=O)N3CCOC[C@H]3Cc3ccccn3)[nH]n2)c1` [compound 5], the figure is 86 µM; as for `COc1cccc(F)c1C[C@@H]1COCCN1C(=O)c1cc(-c2cc(C)ccn2)n[nH]1` [compound 9], 2.5 µM; as for `Cc1ccnc(-c2cc(C(=O)N3CCOC[C@H]3C(C)C)[nH]n2)c1` [compound 4], 148 µM. Broadly, the Kd is the equilibrium constant for the complex coming apart. High values mean weaker binding, low ones tighter binding. On to `COc1ccc(C(=O)CN2C(=O)NC(c3ccccc3)(c3ccccc3)C2=O)cc1` [compound 1], for which, at E. coli LpxA [1], the half-inhibitory concentration (IC50) came out at 1.4 µM. This molecule gave a Kd on E. coli LpxA [2] of 0.1 µM. Further, the MIC in the experiment on MG1655 E. coli K-12 (MG1655, read-out: MIC compound 1) is over 16 µg/mL; in the experiment on VECO2526 E. coli ΔtolC (read-out: MIC compound 1), 0.5 µg/mL (≈ 1.25 µM); in the experiment with CDY0154 E. coli Δ9efflux (read-out: MIC compound 1), 0.5 µg/mL (≈ 1.25 µM); in [3] (ATCC25922, read-out: MIC compound 1) it was over 16 µg/mL; in experiment [4], 0.5 µg/mL (≈ 1.25 µM). As to `C[C@@H](O)[C@H](NC(=O)c1ccc(C#Cc2ccc(CN3CCOCC3)cc2)cc1)C(=O)NO` [CHIR-090], the MIC in the experiment with VECO2526 E. coli ΔtolC (read-out: MIC CHIR-090) is 0.015 µg/mL (≈ 0.0343 µM); with CDY0154 E. coli Δ9efflux (read-out: MIC CHIR-090) it was 0.075 µg/mL (≈ 0.171 µM). In turn, `COc1ccccc1C[C@@H]1COCCN1C(=O)c1cc(-c2cc(C)ccn2)n[nH]1` [compound 8] came in with an IC50 against E. coli LpxA [5] of 11 µM. As for `Cc1ccnc(-c2cc(C(=O)N3CCOCC3)[nH]n2)c1` [compound 3], at E. coli LpxA [1], the IC50 is over 250 µM.

For `Cc1ccnc(-c2cc(C(=O)N3CCOC[C@@H]3Cc3ccccc3)[nH]n2)c1` [compound 12], inhibition against E. coli LpxA [1] was half-maximal at 171 µM (IC50). On to `COc1cccc(Cl)c1C[C@@H]1COCCN1C(=O)c1cc(-c2cc(C)c(N)cn2)n[nH]1` [compound 13], for which the IC50 against E. coli LpxA [5] was 0.6 µM. This lies in the sub-micromolar range. On to `Cc1ccnc(-c2cc(C(=O)N3CCOC[C@H]3Cc3ccccc3F)[nH]n2)c1` [compound 6], for which the midpoint of inhibition against E. coli LpxA [5], the IC50, lay at 3 µM.

The molecule `Cc1ccnc(-c2cc(C(=O)N3CCOC[C@H]3Cc3ccccc3)[nH]n2)c1` [compound 2] yielded a concentration for half-maximal inhibition (IC50) against E. coli LpxA [6] of 4.8 µM. The molecule also gave a Kd on E. coli LpxA [7] of 110 µM. The MIC with MG1655 E. coli K-12 (MG1655, read-out: MIC compound 2) was over 128 µg/mL; with VECO2526 E. coli ΔtolC (read-out: MIC compound 2), 2 µg/mL (≈ 5.52 µM); in the experiment with CDY0154 E. coli Δ9efflux (read-out: MIC compound 2), 2 µg/mL (≈ 5.52 µM); in experiment [3] (ATCC25922, read-out: MIC compound 2) it was over 128 µg/mL.
